The results in this text go back to patent publication US10159746B2, “Cyclodextrin complexation methods for formulating peptide proteasome inhibitors” (Onyx Therapeutics, Inc., priority 2012, dated 2018).

Holding throughout (assay type): physicochemical
The nature of series [1]: Slurry-based complexation/solubilization of CFZ-API in SBECD with citric acid (Example 1). The conditions noted are these: SBECD/WFI/citric acid slurry, 2-8° C., mixed a further 24 hours. As to the method: In a 525 L stainless steel jacketed cooled tank controlled to 2° C.-8° C., a suspension of 2.0 kg carfilzomib-API (CFZ-API), 246 kg water for injection (WFI), and 100 kg sulfobutylether beta-cyclodextrin (SBECD) was prepared. Specifically, in the 525 L stainless steel jacketed cooled tank controlled to 2° C.-8° C., 100 kg SBECD was dissolved in 246 kg WFI. The Carfilzomib suspension was then prepared using 2.0 kg of CFZ-API. Mixing was performed using an impeller mixer to maintain suspension of the CFZ-API solids and dissolve the SBECD. In the same vessel, a probe style rotor-stator high shear mixer (homogenizer) was used as well as the low shear impeller. The high shear mixer was operated for approximately 1 hour yielding an even suspension and reduction of particle size for any larger primary particles or agglomerated API. After a suspension was achieved, 1.96 kg of citric acid was added as a 16% aqueous solution. The pH of the solution was then lowered inducing partial solubilization of the CFZ-API followed by and complexation due to the presence of SBECD. Mixing was continued for a further 24 hours with both the impeller and the high shear mixer and a dissolved concentration of CFZ-API of greater than 5.1 mg/mL was achieved. […]

The nature of series [2]: Chlorohydrin degradation product (CDP) formation in lyophilized carfilzomib/SBECD product by HPLC: pH, water and sodium chloride varied (Example 2). As to the method: A multivariate statistical design of experiments was conducted to assess factors controlling the level of chlorohydrin degradation product as a function of processing parameters and storage time over six months. The complexation was performed in the proportion and parameters given in Example 1, with the following modifications: (i) the complexation process was performed at 2 L batch size; (ii) the final pH of solution before vial filling was varied for purposes of the experiment from 3.0, to 4.0; (iii) sodium chloride was spiked into SBECD in some experiments to create a high sodium chloride condition; (iv) water content of the lyophilized final product in stoppered vials was produced at high and low sodium chloride conditions via early termination and stoppering of vials to create a higher residual water content condition.
The solution of complexed carfilzomib for injection bulk solution pre-lyophilization included aqueous 5 mg/mL carfilzomib, 250 mg/mL Captisol® (SBECD) and 4.86 mg/mL citric acid, pH adjusted with aqueous sodium hydroxide. Compounding of the bulk solutions for lyophilization followed the procedure detailed in Example 1 with the following manipulations to create solutions with different specific attributes: • 1. pH was adjusted to 3.0 and 4.0 • 2. Sodium chloride was spiked into the Captisol® to create a “High Chloride” condition Captisol® manufactured by Cydex, a subsidiary of Ligand, has a standard product analysis range for sodium chloride from 0.05% to 0.2% (w/v). […] 400 g of this Captisol® was required per batch for the process to be performed at 2 L scale batches of complexation processing (in same proportions and general parameters per Example 1). To create the “high chloride” condition, 0.6 g of NaCl was added to 399.4 g of Captisol® which thus mimicked what a batch containing 0.2% chloride Captisol® would be comprised of.
In order to generate two (2) moisture content conditions in the final lyophilized vials, two (2) sets of 61.8 mg/vial (of CFZ-API) samples were lyophilized. The first cycle generated the “dry” sample set of vials containing approximately 0.6% residual water per Example 1 lyophilization parameters. For the second sample set, lyophilization was terminated and vials stoppered earlier in the secondary drying phase to generate the “wet” condition vials, with residual moisture approximately 2.4% water per vial initially.
The bulk solution of complexed carfilzomib was analyzed during manufacture by High Performance Liquid Chromatography (HPLC) to accurately quantify the concentration of dissolved and complexed carfilzomib drug substance. Subsequently, additional water was added to accurately dilute the bulk complexed solution. After this dilution step, HPLC was used again to ensure a target concentration of 5.0 mg/mL was achieved. Samples of the three (3) final bulk solutions were analyzed for potency and purity confirmation testing by HPLC. […] Karl Fischer Coulometry method was used for the water content determination in the lyophilized drug product.

Series [3] in a line: Compounding study: dissolved carfilzomib versus time in 25% (w/v) SBE-β-CD (Example 5). The conditions noted are these: CFZ-API suspension in 25% (w/v) SBE-β-CD solution, aqueous with cosolvent or surfactant or cyclodextrin, thermodynamic from solid, read-out: solubilized concentration during compounding. As to the method:
SBE-β-CD was dissolved in WFI to achieve 25% (w/v) solution. A suspension of CFZ-API in the SBE-β-CD solution was prepared by homogenization per the solubility study
API solids were added in all experiments to theoretically yield a ˜6 mg/mL final solution to mimic the commercial process
After homogenization, pH was lowered using citric acids to affect solubilization, while continuing mixing up 24 hours. Then, all preparations were adjusted to pH 3.5. Dissolved concentration as a function of time was measured by sampling, filtration, then HPLC analysis to monitor the kinetics of complexation in the slurry based process.

Each structure is given as a SMILES string. Converted amounts (≈) assume the structure as drawn.

For the compound `CC(C)C[C@H](NC(=O)[C@H](CCc1ccccc1)NC(=O)CN1CCOCC1)C(=O)N[C@@H](Cc1ccccc1)C(=O)N[C@@H](CC(C)C)C(=O)[C@@]1(C)CO1` [carfilzomib], in series [1], the “dissolved concentration of CFZ-API” value is reported as “greater than 5.1 mg/mL”. The “% Area of CDP after 6 months (HPLC data)” value in series [2] (5° C., pH 3.00, water 0.7%, sodium chloride 0.05%) worked out at 0.00 % Area; in series [2] (5° C., pH 3.00, water 0.7%, sodium chloride 0.2%), 0.13 % Area; in series [2] (5° C., pH 3.00, water 2%, sodium chloride 0.05%), 0.02 % Area; in series [2] (5° C., pH 3.00, water 2%, sodium chloride 0.2%), 0.28 % Area; in series [2] (5° C., pH 4.00, water 0.7%, sodium chloride 0.05%), 0.00 % Area; in series [2] (5° C., pH 4.00, water 0.7%, sodium chloride 0.2%), 0.08 % Area. In addition, the “% Area of CDP after 6 months (HPLC data)” value in series [2] (5° C., pH 4.00, water 2%, sodium chloride 0.05%) was found to be 0.02 % Area; in series [2] (5° C., pH 4.00, water 2%, sodium chloride 0.2%), 0.18 % Area; in series [2] (25° C., pH 3.00, water 0.7%, sodium chloride 0.05%), 0.14 % Area; in series [2] (25° C., pH 3.00, water 0.7%, sodium chloride 0.2%), 0.70 % Area; in series [2] (25° C., pH 3.00, water 2%, sodium chloride 0.05%) it was 0.55 % Area; in series [2] (25° C., pH 4.00, water 0.7%, sodium chloride 0.05%), 0.09 % Area. Besides, the “% Area of CDP after 6 months (HPLC data)” value in series [2] (25° C., pH 4.00, water 0.7%, sodium chloride 0.2%) was determined as 0.36 % Area; in series [2] (25° C., pH 4.00, water 2%, sodium chloride 0.05%), 0.35 % Area. Also, the solubility at 2 h in series [3] (first 2 hours) was 4500 µg/mL (≈ 6.25 mM). Further, the solubility in series [3] (slow equilibration phase, in >20 hours) worked out at 5500 µg/mL (≈ 7.64 mM).
